Test results as given in PMC12345137 (mBio, 2025).
Where two headings read alike, the source gives them in different places.

Assays:
[1] = test system: S. epidermidis (SE) agr-I; conditions: fluorescence, cited from earlier work
S. aureus (SA) agr-IV = conditions: fluorescence, cited from earlier work
S. aureus (SA) agr-III = conditions: fluorescence, cited from earlier work
[2] = test system: S. epidermidis (SE) agr-II; conditions: fluorescence, cited from earlier work
S. aureus (SA) agr-I = conditions: fluorescence, cited from earlier work
[3] = test system: S. epidermidis (SE) agr-III; conditions: fluorescence, cited from earlier work; for IC50: ref (13)
S. aureus (SA) agr-II = conditions: fluorescence, cited from earlier work
SA AgrC-III [4] = biological target: T1, SA AgrC-III (Staphylococcus aureus, UniProt O33590); conditions: 100 nM cognate AIP, ± SEM, determined previously, ref (1), cited from earlier work
SA AgrC-IV [5] = biological target: T2, SA AgrC-IV (Staphylococcus aureus, UniProt Q309Z2); conditions: ± SEM, determined previously, ref (1), cited from earlier work
SA AgrC-II [6] = biological target: T3, SA AgrC-II (Staphylococcus aureus, UniProt O33587); conditions: 100 nM cognate AIP, ± SEM, -b = no inhibition recorded at the highest AIP concentration tested, determined previously, ref (1), cited from earlier work; for IC50: read-out: IC50, SA AgrC-II, b-lactamase assay
S. aureus agr-IV = S. aureus agr-IV (Staphylococcus aureus, UniProt Q309Z2); test: cell-based; assay type: cell-based; conditions: fluorescent reporter strain; peptides tested at 1000, 50, 2.5, 0.125 nM or in dose-response
Description: (§1) Peptides were evaluated for the ability to interfere with agr-mediated quorum sensing in S. aureus (AH1677, AH430, AH1747, and AH1872 for agr-I–IV, respectively) ([40]) using reporter strains expressing yellow fluorescent protein (YFP) upon agr activation. Interference with agr-mediated quorum sensing in S. epidermidis (AH3408, AH3623, and AH3409 for agr-I–III, respectively) ([45]), and S. lugdunensis (AH4031 for agr-I) ([37]) was evaluated using reporter strains expressing superfolder green fluorescent protein (sGFP) upon agr activation. Overnight cultures of the reporter strains were grown in TSB medium containing chloramphenicol (CAM, 10 μg/mL for S. aureus) or erythromycin (ERM, 10 μg/mL of S. epidermidis and S. lugdunensis) and diluted 1:100 in fresh TSB medium containing the same antibiotic. Assays were performed in sterile black 96-well plates with a clear bottom. […] DMSO stock solutions of peptides (1 mM) were diluted in TSB media and added (15 μL) in technical triplicate to the 96-well plate, followed by diluted bacterial overnight cultures (135 μL). Control wells for 100% agr activity were wells replacing the peptide solution with TSB medium (15 μL). […] Wells containing 150 μL TSB medium were used to measure background fluorescence. The 96-well plates were incubated in a humidified incubator at 37°C shaking at 1,000 rpm for 22–24 h and fluorescence (for GFP: excitation 479 nm, emission 520 nm; for YFP: excitation 500 nm, emission 541 nm; automatic gain), and OD600 values were subsequently measured using a plate reader. Background fluorescence was subtracted from all wells and further normalized to the corresponding OD600 value of the respective wells. The average fluorescence of control wells was used as a relative measure for 100% activation of the agr-circuit, and bar graphs were generated using GraphPad Prism 10.4 software. All assays were performed in at least a biological duplicate.
(§2) Overnight cultures of the reporter strains were grown in TSB medium containing chloramphenicol (CAM, 10 μg/mL for S. aureus) or erythromycin (ERM, 10 μg/mL of S. epidermidis and S. lugdunensis) and diluted 1:100 in fresh TSB medium containing the same antibiotic. Assays were performed in sterile black 96-well plates with clear bottoms. Peptide solutions (15 μL) in 1:5 serial dilutions from DMSO stock solutions (1 mM) in TSB medium were added to the 96-well plate in technical duplicate followed by diluted bacterial overnight cultures (135 μL). Control wells for 100% agr activity were wells replacing the peptide solution with TSB medium (15 μL). Wells containing 150 μL TSB medium were used to measure background fluorescence. The 96-well plates were incubated in a humidified incubator at 37°C shaking at 1,000 rpm for 22–24 h and fluorescence (for GFP: excitation 479 nm, emission 520 nm; for YFP: excitation 500 nm, emission 541 nm; automatic gain), and OD600 values were subsequently measured using a plate reader. Background fluorescence was subtracted from all wells and further normalized to the corresponding OD600 value of the respective wells. The average fluorescence of control wells was used as a relative measure for 100% activation of the agr-circuit. Relative agr activity was plotted to obtain IC50 values by non-linear regression with variable slope using GraphPad Prism 10.4 software. All assays were performed in biological triplicate.

S. lugdunensis agr-I = S. lugdunensis agr-I (Staphylococcus lugdunensis, UniProt Q8VSW5); test: cell-based; conditions: fluorescent reporter strain; peptides tested at 1000, 50, 2.5, 0.125 nM or in dose-response
Description: as §1, §2

SA AgrC-II [7] = biological target: T3, SA AgrC-II; test: β-Lactamase assay, reporter strain RN10829 (P2-agrA:P3-blaZ) with pagrC-II; assay type: cell-based; conditions: 100 nM cognate AIP; ± SEM; -b = no inhibition recorded at the highest AIP concentration tested; -a = only partial inhibition observed; this study (curves in Fig. S20)
Text: (§3) The β-lactamase reporter strain RN10829 (P2-agrA:P3-blaZ) ([62]), with pagrC-I ([63]), pagrC-II, pagrC-III, or pagrC-IV ([11]), substituting the native agr locus with a chromosomal integration of P2-agrA and P3-blaZ and a plasmid from which a wild-type variant of the corresponding AgrC is expressed, was used to assess inhibition and activation of the AgrC receptor via β-lactamase activity in response to varying concentrations of the QS modulating peptides. Overnight cultures of the reporter strains in TSB medium were diluted 1:250 in fresh TSB medium and grown to OD600 = 0.35–0.40 (early exponential phase) at 37°C. Peptide solutions (10 μL) in 1:10 serial dilutions from DMSO stock solutions (1 mM) in TSB medium (final concentrations = 10 μM–10 pM) were added to each well of a clear 96-well plate as well as solutions (10 μL) of cognate AIP (final concentration = 100 nM) in TSB medium followed by 80 μL of bacterial cells. Control wells for 100% β-lactamase activity were wells replacing peptide solution with TSB media (10 μL), and control wells for 0% β-lactamase activity were wells replacing both peptide and cognate AIP solutions with TSB medium (20 μL). The 96-well plates were incubated at 37°C shaking at 200 rpm for 1 h and immediately frozen down at −80°C to minimize growth during nitrocefin treatment. Next, the 96-well plates were thawed, and OD600 values were determined using a plate reader followed by the addition of 50 μL of nitrocefin solution to the wells (final concentration = 33.3 μg/mL). β-Lactamase activity was monitored at OD486 every 20 s for 10 min at 37°C using a plate-reader. Linear nitrocefin conversion rates were plotted to obtain IC50 values by non-linear regression with variable slope using GraphPad Prism 10.4 software. Assays were performed at least as duplicate determinations in biological triplicate.

SA AgrC-III [8] = biological target: T1, SA AgrC-III; test: β-Lactamase assay, reporter strain RN10829 (P2-agrA:P3-blaZ) with pagrC-III; assay type: cell-based; conditions: 100 nM cognate AIP; ± SEM; -b = no inhibition recorded at the highest AIP concentration tested; -a = only partial inhibition observed; this study (curves in Fig. S21)
Text: as §3

SA AgrC-IV [9] = biological target: T2, SA AgrC-IV; test: β-Lactamase assay, reporter strain RN10829 (P2-agrA:P3-blaZ) with pagrC-IV; assay type: cell-based; conditions: 100 nM cognate AIP; ± SEM; -b = no inhibition recorded at the highest AIP concentration tested; -a = only partial inhibition observed; this study (curves in Fig. S22)
Text: as §3

S. epidermidis agr-III = S. epidermidis agr-III (Staphylococcus epidermidis, UniProt Q8VSX2); test: cell-based; assay type: cell-based; conditions: fluorescent reporter strain; peptides tested at 1000, 50, 2.5, 0.125 nM or in dose-response
Description: as §1, §2

Question: Which results are given for S. hominis AIP-II [compound 11]?
Answer: IC50 ([1]; ref (13)): 20 nM; IC50 (S. aureus (SA) agr-IV; ref (13)): 1130 nM; IC50 (S. aureus (SA) agr-III; ref (13)): 3 nM; IC50 ([2]; ref (13)): 19 nM; IC50 (S. aureus (SA) agr-I; ref (13)): 15 nM; IC50 [3]: 62 nM; IC50 (S. aureus (SA) agr-II; ref (13)): 2110 nM

Question: Which results are given for S. hominis AIP-III [compound 12]?
Answer: IC50 ([1]; ref (13)): 4 nM; IC50 (SA AgrC-III [4]; only partial inhibition observed, read-out: IC50, SA AgrC-III, b-lactamase assay, only partial inhibition observed (footnote a)): 220 ± 46 nM; IC50 (S. aureus (SA) agr-III; ref (13)): 6 nM; EC50 (SA AgrC-IV [5]; read-out: EC50, SA AgrC-IV, b-lactamase assay): 54 ± 5 nM; IC50 ([2]; ref (13)): 3 nM; IC50 (S. aureus (SA) agr-I; ref (13)): 11 nM; IC50 [3]: 3 nM; IC50 (S. aureus (SA) agr-II; ref (13)): 4 nM; IC50 (SA AgrC-II [6]): 580 ± 61 nM; QS interaction in words (inhibition / activation), S. aureus agr-IV (S. aureus agr-IV): activated

Question: Which “QS interaction in words (inhibition / activation), S. lugdunensis agr-I” value (S. lugdunensis agr-I) does the source give for “S. Simulans AIP-II/III N-Me2 [compound 56]” here?
Answer: remained highly potent

Question: With S. epidermidis AIP-II [compound 6] as the substance, how does the “effect from supernatant (% inhibition, activation or no effect), SE agr-I” value ([1]; from supernatant, ref (18)) read?
Answer: ~ 90%

Question: And the IC50 ([1]; ref (11))?
Answer: 9.64 nM

Question: What about the “IC50, SA AgrC-II, b-lactamase assay” value (SA AgrC-II [7]) of the same substance?
Answer: -b

Question: What about the “IC50, SA AgrC-III, b-lactamase assay” value (SA AgrC-III [8]) of the same substance?
Answer: -b

Question: And the “inhibition at 100 nM, SA agr-IV” value (S. aureus (SA) agr-IV; at 100 nM, ref (11))?
Answer: no inhibition

Question: What about the “inhibition at 100 nM, SA agr-III” value (S. aureus (SA) agr-III; at 100 nM, ref (11)) of the same substance?
Answer: no inhibition

Question: What about the “effect at 10 µM, SE agr-II” value ([2]; at 10 µM, ref (11)) of the same substance?
Answer: activation

Question: What about the “effect from supernatant (% inhibition, activation or no effect), SE agr-II” value ([2]; from supernatant, ref (18)) of the same substance?
Answer: activation

Question: What about the “IC50, SA AgrC-IV, b-lactamase assay” value (SA AgrC-IV [9]) of the same substance?
Answer: -b

Question: What about the “inhibition at 100 nM, SA agr-I” value (S. aureus (SA) agr-I; at 100 nM, ref (11)) of the same substance?
Answer: no inhibition

Question: What about the “effect at 10 µM, SE agr-III” value ([3]; at 10 µM, ref (11)) of the same substance?
Answer: no effect

Question: And the “effect from supernatant (% inhibition, activation or no effect), SE agr-III” value ([3]; from supernatant, ref (18))?
Answer: no effect

Question: And the “inhibition at 100 nM, SA agr-II” value (S. aureus (SA) agr-II; at 100 nM, ref (11))?
Answer: no inhibition

Question: With “S. simulans AIP-II/III Y3A/N3A [compound 38]” as the substance, how does the “QS interaction in words (inhibition / activation), S. epidermidis agr-III” value (S. epidermidis agr-III) read?
Answer: inhibitor

Question: What does the source list for S. lugdunensis AIP-II [compound 9]?
Answer: IC50, SA AgrC-III, b-lactamase assay (SA AgrC-III [4]; -b = no inhibition recorded at the highest AIP concentration tested): -b; IC50, SA AgrC-IV, b-lactamase assay (SA AgrC-IV [5]; 100 nM cognate AIP, -b = no inhibition recorded at the highest AIP concentration tested): -b; IC50, SA AgrC-II, b-lactamase assay (SA AgrC-II [6]): -b

Question: For S. hominis AIP-IV [compound 13], which IC50 ([1]; ref (13)) is on record?
Answer: 237 nM

Question: And the IC50 (S. aureus (SA) agr-III; ref (13))?
Answer: 37 nM

Question: What about the IC50 ([2]; ref (13)) of the same substance?
Answer: 93 nM

Question: And the IC50 (S. aureus (SA) agr-I; ref (13))?
Answer: 128 nM

Question: What about the IC50 [3] of the same substance?
Answer: 28 nM

Question: What about the IC50 (S. aureus (SA) agr-II; ref (13)) of the same substance?
Answer: 140 nM

Question: With S. simulans AIP-III K1A [compound 45] as the substance, how does the “QS interaction in words (inhibition / activation), S. epidermidis agr-III” value (S. epidermidis agr-III) read?
Answer: lost the ability to activate

Question: With S. simulans AIP-III Y2A [compound 46] as the substance, how does the “QS interaction in words (inhibition / activation), S. epidermidis agr-III” value (S. epidermidis agr-III) read?
Answer: lost the ability to activate

Question: With S. warneri AIP-I [compound 16] as the substance, how does the IC50 ([1]; ref (14)) read?
Answer: 3 nM

Question: What about the IC50 (SA AgrC-III [4]; -b = no inhibition recorded at the highest AIP concentration tested, read-out: IC50, SA AgrC-III, b-lactamase assay) of the same substance?
Answer: 460 ± 59 nM

Question: What about the IC50 (S. aureus (SA) agr-IV; ref (14)) of the same substance?
Answer: 146 nM

Question: What about the IC50 (S. aureus (SA) agr-III; ref (14)) of the same substance?
Answer: 13 nM

Question: And the IC50 (SA AgrC-IV [5]; 100 nM cognate AIP, -b = no inhibition recorded at the highest AIP concentration tested, read-out: IC50, SA AgrC-IV, b-lactamase assay)?
Answer: > 1000 nM

Question: And the IC50 ([2]; ref (14))?
Answer: 19 nM

Question: What about the IC50 (S. aureus (SA) agr-I; ref (14)) of the same substance?
Answer: 10 nM

Question: And the IC50 (S. aureus (SA) agr-II; ref (14))?
Answer: 4 nM

Question: What about the IC50 (SA AgrC-II [6]) of the same substance?
Answer: 1000 ± 105 nM
